Consider 2 compounds from PMC11486130, “Structure-guided discovery of novel dUTPase inhibitors with anti-Nocardia activity by computational design” (Journal of Enzyme Inhibition and Medicinal Chemistry, 2024).

One assay deals with T1, NsdUTPase A22V (Nocardia seriolae, UniProt A0ABF7PKI9, A22V).
T1 sequence (A0ABF7PKI9 1-166 A22V): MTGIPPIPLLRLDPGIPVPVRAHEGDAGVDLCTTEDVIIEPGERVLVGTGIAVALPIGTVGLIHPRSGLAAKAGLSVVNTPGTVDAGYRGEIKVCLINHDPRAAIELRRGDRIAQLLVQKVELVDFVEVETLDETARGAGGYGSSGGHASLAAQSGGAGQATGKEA
The experiment in a line: Kd to A22V mutant of NsdUTPase. In kind it is binding, N. seriolae.

Another assay concerns the target T2, NsdUTPase K93A (Nocardia seriolae, UniProt A0ABF7PKI9, K93A).
T2 sequence (A0ABF7PKI9 1-166 K93A): T1 sequence (A0ABF7PKI9 1-166 A22V)
The experiment in a line: Kd to K93A mutant of NsdUTPase. In kind it is binding, N. seriolae.

For orientation: Kd means the free concentration of one partner at which half of the binding sites on the other are occupied at equilibrium, for simple one-to-one binding. On to `C=CCn1c(/C=C/c2ccccc2)nc2cc(C(F)(F)F)ccc21` [4b, (E)-1-Allyl-2-styryl-5-(trifluoromethyl)-1H-benzo[d]imidazole], for which the Kd at NsdUTPase A22V worked out at 5.34 µM; at NsdUTPase K93A, 50.7 µM.
The matching figures for `C=CCn1c(-c2ccc(Oc3ccccc3)cc2)nc2cc(C)ccc21` [12b, 1-Allyl-5-methyl-2-(4-phenoxyphenyl)-1H-benzo[d]imidazole]: 3.16 µM and 40.9 µM.
